Data: article PMC6409085, “Three odorant-binding proteins are involved in the behavioral response of Sogatella furcifera to rice plant volatiles” (PeerJ, 2019)
pIC50: −log10 of the molar value. Several values for one entry are separate records, joined by “and”; a condition that tells them apart may be missing. Identical values can stand only once.

Columns and labels:
[1] = target: SfurOBP1 (Sogatella furcifera, UniProt V5T8N5); experiment: biochemical; type: binding; settings: for Fluorescence competitive binding assay, fluorescence intensity: OBP1, three replicate columns
Sequence of SfurOBP1 (V5T8N5 entry or part of it): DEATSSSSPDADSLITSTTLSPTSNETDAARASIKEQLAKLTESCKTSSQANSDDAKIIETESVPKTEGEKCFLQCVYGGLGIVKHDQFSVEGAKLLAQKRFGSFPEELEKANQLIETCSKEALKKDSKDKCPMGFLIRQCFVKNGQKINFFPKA
Procedure, shortened: (§1)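 K1-NPN came from titrating 2.0 µM protein (50 mM Tris-HCl, pH 7.4) with 1-NPN. Odorants at 2-20 µM then competed against 2.0 µM protein plus 2.0 µM 1-NPN for 2 min, with excitation at 337 nm and emission recorded over 390-490 nm. IC50 values were converted to Ki via Ki = IC50/(1 + [1-NPN]/K1-NPN).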

[2] = target: SfurOBP11 (Sogatella furcifera, UniProt V5T6E3); experiment: biochemical; type: binding
Sequence of SfurOBP11 (V5T6E3 entry or part of it): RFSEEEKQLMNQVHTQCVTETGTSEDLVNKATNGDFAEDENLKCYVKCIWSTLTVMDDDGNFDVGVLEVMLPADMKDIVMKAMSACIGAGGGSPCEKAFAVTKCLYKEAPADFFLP
Procedure, shortened: as §1

[3] = target: SfurOBP2 (Sogatella furcifera, UniProt V5T759); experiment: biochemical; type: binding
Sequence of SfurOBP2 (V5T759 entry or part of it): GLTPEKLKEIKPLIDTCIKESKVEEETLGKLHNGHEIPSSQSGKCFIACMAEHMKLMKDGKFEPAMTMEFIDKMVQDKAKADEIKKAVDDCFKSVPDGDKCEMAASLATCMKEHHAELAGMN
Procedure, shortened: as §1

[4] = target: SfurOBP3 (Sogatella furcifera, UniProt V5T818); experiment: biochemical; type: binding; settings: for Fluorescence competitive binding assay, fluorescence intensity: OBP3, three replicate columns
Sequence of SfurOBP3 (V5T818 entry or part of it): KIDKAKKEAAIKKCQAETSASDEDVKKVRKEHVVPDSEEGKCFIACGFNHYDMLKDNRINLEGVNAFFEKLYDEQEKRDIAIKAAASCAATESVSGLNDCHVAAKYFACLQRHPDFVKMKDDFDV
Procedure, shortened: as §1

[5] = tested on: S. furcifera adults; experiment: Y-tube olfactometer behavioral trials; type: in vivo, Sogatella furcifera; settings: odorant 50 µL/L vs hexane; adults
Procedure, shortened: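 Single S. furcifera adults (2 days post-emergence, starved 0.5 h) chose between odorant (100 µL of 50 µL/L on filter paper) and hexane control in a glass Y-tube, charcoal-filtered humidified air 300 mL/min per arm, 25 ± 1 °C, 50% RH. Choice scored if insect passed half an arm and stayed >1 min within 10 min; 45 insects per compound, chi-squared test.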

## O=Cc1ccccc1 [benzaldehyde]
[1]
  pIC50: < 4.70
[1]; ligand concentration 2 (μM)
  Fluorescence competitive binding assay, fluorescence intensity: 6748 and 7004 and 6492
[1]; ligand concentration 4 (μM)
  Fluorescence competitive binding assay, fluorescence intensity: 7245 and 7115 and 7374
[1]; ligand concentration 6 (μM)
  Fluorescence competitive binding assay, fluorescence intensity: 6061 and 6132 and 7040
[1]; ligand concentration 8 (μM)
  Fluorescence competitive binding assay, fluorescence intensity: 7119 and 7198 and 8488
[1]; ligand concentration 10 (μM)
  Fluorescence competitive binding assay, fluorescence intensity: 6689 and 6820 and 6663
[1]; ligand concentration 12 (μM)
  Fluorescence competitive binding assay, fluorescence intensity: 6039 and 7567 and 5952
[1]; ligand concentration 14 (μM)
  Fluorescence competitive binding assay, fluorescence intensity: 5985 and 6868 and 6969
[1]; ligand concentration 16 (μM)
  Fluorescence competitive binding assay, fluorescence intensity: 5390 and 5637 and 6081
[1]; ligand concentration 18 (μM)
  Fluorescence competitive binding assay, fluorescence intensity: 7493 and 9048 and 6239
[1]; ligand concentration 20 (μM)
  Fluorescence competitive binding assay, fluorescence intensity: 8583 and 7861 and 5961
[2]
  pIC50: < 4.70
[2]; ligand concentration 2, replicate 1
  Fluorescence intensity, fluorescence competitive binding assay, OBP11: 25700
[2]; ligand concentration 2, replicate 2
  Fluorescence intensity, fluorescence competitive binding assay, OBP11: 26420
[2]; ligand concentration 2, replicate 3
  Fluorescence intensity, fluorescence competitive binding assay, OBP11: 26489
[2]; ligand concentration 4, replicate 1
  Fluorescence intensity, fluorescence competitive binding assay, OBP11: 25103
[2]; ligand concentration 4, replicate 2
  Fluorescence intensity, fluorescence competitive binding assay, OBP11: 25939
[2]; ligand concentration 4, replicate 3
  Fluorescence intensity, fluorescence competitive binding assay, OBP11: 26917
[2]; ligand concentration 6, replicate 1
  Fluorescence intensity, fluorescence competitive binding assay, OBP11: 24540
[2]; ligand concentration 6, replicate 2
  Fluorescence intensity, fluorescence competitive binding assay, OBP11: 24263
[2]; ligand concentration 6, replicate 3
  Fluorescence intensity, fluorescence competitive binding assay, OBP11: 26004
[2]; ligand concentration 8, replicate 1
  Fluorescence intensity, fluorescence competitive binding assay, OBP11: 24810
[2]; ligand concentration 8, replicate 2
  Fluorescence intensity, fluorescence competitive binding assay, OBP11: 23717
[2]; ligand concentration 8, replicate 3
  Fluorescence intensity, fluorescence competitive binding assay, OBP11: 25921
[2]; ligand concentration 10, replicate 1
  Fluorescence intensity, fluorescence competitive binding assay, OBP11: 21750
[2]; ligand concentration 10, replicate 2
  Fluorescence intensity, fluorescence competitive binding assay, OBP11: 22655
[2]; ligand concentration 10, replicate 3
  Fluorescence intensity, fluorescence competitive binding assay, OBP11: 24544
[2]; ligand concentration 12, replicate 1
  Fluorescence intensity, fluorescence competitive binding assay, OBP11: 22377
[2]; ligand concentration 12, replicate 2
  Fluorescence intensity, fluorescence competitive binding assay, OBP11: 22204
[2]; ligand concentration 12, replicate 3
  Fluorescence intensity, fluorescence competitive binding assay, OBP11: 22549
[2]; ligand concentration 14, replicate 1
  Fluorescence intensity, fluorescence competitive binding assay, OBP11: 20889
[2]; ligand concentration 14, replicate 2
  Fluorescence intensity, fluorescence competitive binding assay, OBP11: 20823
[2]; ligand concentration 14, replicate 3
  Fluorescence intensity, fluorescence competitive binding assay, OBP11: 20954
[2]; ligand concentration 16, replicate 1
  Fluorescence intensity, fluorescence competitive binding assay, OBP11: 18305
[2]; ligand concentration 16, replicate 2
  Fluorescence intensity, fluorescence competitive binding assay, OBP11: 18429
[2]; ligand concentration 16, replicate 3
  Fluorescence intensity, fluorescence competitive binding assay, OBP11: 20008
[2]; ligand concentration 18, replicate 1
  Fluorescence intensity, fluorescence competitive binding assay, OBP11: 18084
[2]; ligand concentration 18, replicate 2
  Fluorescence intensity, fluorescence competitive binding assay, OBP11: 18788
[2]; ligand concentration 18, replicate 3
  Fluorescence intensity, fluorescence competitive binding assay, OBP11: 18463
[2]; ligand concentration 20, replicate 1
  Fluorescence intensity, fluorescence competitive binding assay, OBP11: 17844
[2]; ligand concentration 20, replicate 2
  Fluorescence intensity, fluorescence competitive binding assay, OBP11: 18414
[2]; ligand concentration 20, replicate 3
  Fluorescence intensity, fluorescence competitive binding assay, OBP11: 17540
[3]
  pIC50: < 4.70
[3]; ligand concentration 2 (unit not given), replicate column 1 of 3
  Fluorescence competitive binding assay, OBP2 (raw fluorescence reading): 15507
[3]; ligand concentration 2 (unit not given), replicate column 2 of 3
  Fluorescence competitive binding assay, OBP2 (raw fluorescence reading): 14848
[3]; ligand concentration 2 (unit not given), replicate column 3 of 3
  Fluorescence competitive binding assay, OBP2 (raw fluorescence reading): 15027
[3]; ligand concentration 4 (unit not given), replicate column 1 of 3
  Fluorescence competitive binding assay, OBP2 (raw fluorescence reading): 14937
[3]; ligand concentration 4 (unit not given), replicate column 2 of 3
  Fluorescence competitive binding assay, OBP2 (raw fluorescence reading): 13962
[3]; ligand concentration 4 (unit not given), replicate column 3 of 3
  Fluorescence competitive binding assay, OBP2 (raw fluorescence reading): 14585
[3]; ligand concentration 6 (unit not given), replicate column 1 of 3
  Fluorescence competitive binding assay, OBP2 (raw fluorescence reading): 13559
[3]; ligand concentration 6 (unit not given), replicate column 2 of 3
  Fluorescence competitive binding assay, OBP2 (raw fluorescence reading): 14529
[3]; ligand concentration 6 (unit not given), replicate column 3 of 3
  Fluorescence competitive binding assay, OBP2 (raw fluorescence reading): 14868
[3]; ligand concentration 8 (unit not given), replicate column 1 of 3
  Fluorescence competitive binding assay, OBP2 (raw fluorescence reading): 13310
[3]; ligand concentration 8 (unit not given), replicate column 2 of 3
  Fluorescence competitive binding assay, OBP2 (raw fluorescence reading): 14622
[3]; ligand concentration 8 (unit not given), replicate column 3 of 3
  Fluorescence competitive binding assay, OBP2 (raw fluorescence reading): 14449
[3]; ligand concentration 10 (unit not given), replicate column 1 of 3
  Fluorescence competitive binding assay, OBP2 (raw fluorescence reading): 13559
[3]; ligand concentration 10 (unit not given), replicate column 2 of 3
  Fluorescence competitive binding assay, OBP2 (raw fluorescence reading): 13459
[3]; ligand concentration 10 (unit not given), replicate column 3 of 3
  Fluorescence competitive binding assay, OBP2 (raw fluorescence reading): 14101
[3]; ligand concentration 12 (unit not given), replicate column 1 of 3
  Fluorescence competitive binding assay, OBP2 (raw fluorescence reading): 13500
[3]; ligand concentration 12 (unit not given), replicate column 2 of 3
  Fluorescence competitive binding assay, OBP2 (raw fluorescence reading): 13742
[3]; ligand concentration 12 (unit not given), replicate column 3 of 3
  Fluorescence competitive binding assay, OBP2 (raw fluorescence reading): 13318
[3]; ligand concentration 14 (unit not given), replicate column 1 of 3
  Fluorescence competitive binding assay, OBP2 (raw fluorescence reading): 12764
[3]; ligand concentration 14 (unit not given), replicate column 2 of 3
  Fluorescence competitive binding assay, OBP2 (raw fluorescence reading): 13284
[3]; ligand concentration 14 (unit not given), replicate column 3 of 3
  Fluorescence competitive binding assay, OBP2 (raw fluorescence reading): 13618
[3]; ligand concentration 16 (unit not given), replicate column 1 of 3
  Fluorescence competitive binding assay, OBP2 (raw fluorescence reading): 12066
[3]; ligand concentration 16 (unit not given), replicate column 2 of 3
  Fluorescence competitive binding assay, OBP2 (raw fluorescence reading): 12546
[3]; ligand concentration 16 (unit not given), replicate column 3 of 3
  Fluorescence competitive binding assay, OBP2 (raw fluorescence reading): 12131
[3]; ligand concentration 18 (unit not given), replicate column 1 of 3
  Fluorescence competitive binding assay, OBP2 (raw fluorescence reading): 11847
[3]; ligand concentration 18 (unit not given), replicate column 2 of 3
  Fluorescence competitive binding assay, OBP2 (raw fluorescence reading): 12489
[3]; ligand concentration 18 (unit not given), replicate column 3 of 3
  Fluorescence competitive binding assay, OBP2 (raw fluorescence reading): 12075
[3]; ligand concentration 20 (unit not given), replicate column 1 of 3
  Fluorescence competitive binding assay, OBP2 (raw fluorescence reading): 11984
[3]; ligand concentration 20 (unit not given), replicate column 2 of 3
  Fluorescence competitive binding assay, OBP2 (raw fluorescence reading): 12356
[3]; ligand concentration 20 (unit not given), replicate column 3 of 3
  Fluorescence competitive binding assay, OBP2 (raw fluorescence reading): 11918
[4]
  pIC50: < 4.70
[4]; ligand concentration 2
  Fluorescence competitive binding assay, fluorescence intensity: 45330 and 44709 and 45950
[4]; ligand concentration 4
  Fluorescence competitive binding assay, fluorescence intensity: 42404 and 44063 and 46652
[4]; ligand concentration 6
  Fluorescence competitive binding assay, fluorescence intensity: 42957 and 46006 and 45764
[4]; ligand concentration 8
  Fluorescence competitive binding assay, fluorescence intensity: 41484 and 44807 and 44761
[4]; ligand concentration 10
  Fluorescence competitive binding assay, fluorescence intensity: 42296 and 40919 and 43670
[4]; ligand concentration 12
  Fluorescence competitive binding assay, fluorescence intensity: 40362 and 40474 and 40259
[4]; ligand concentration 14
  Fluorescence competitive binding assay, fluorescence intensity: 36140 and 35545 and 34940
[4]; ligand concentration 16
  Fluorescence competitive binding assay, fluorescence intensity: 32608 and 31985 and 31371
[4]; ligand concentration 18
  Fluorescence competitive binding assay, fluorescence intensity: 31185 and 31705 and 30913
[4]; ligand concentration 20
  Fluorescence competitive binding assay, fluorescence intensity: 30533 and 30370 and 31330
[5]
  number of insects choosing hexane arm: 10
  number of insects choosing volatilies arm: 7
  number of insects failed (no choice): 23
